Measurements as given in ChEMBL document CHEMBL3885861, “Open TG-GATES”.

Species on record: Rattus norvegicus
Experiment: Open TG-GATES - Regimen: Daily Repeat
Format: toxicity, organism-based, Sprague-Dawley
Design: regimen Daily Repeat, gender Male, age 6 weeks
Details: in vivo, po, 100 mg/kg, route gavage, dose level Low; for APTT / Bas / Eos / Fbg / Hb / Ht / Lym / MCH / MCHC / MCV / Mono / Neu / PT / Plat / RBC / Ret / WBC: tissue Blood
[1] = 72 h, tissue Kidney, time 3 day
[2] = 72 h, tissue Plasma, time 3 day

In the case of `CCN1CCCC1CNC(=O)c1cc(S(N)(=O)=O)ccc1OC` (stereo unspecified) [SULPIRIDE], the TERMINAL_BW (72 h, time 3 day) is reported as 231.2 g, the APTT (72 h, time 3 day) is reported as 17.2 s and the Bas (72 h, time 3 day) is reported as 0%. It also gave an Eos (72 h, time 3 day) of 1%, a Fbg (72 h, time 3 day) of 274.6 mg/dL and a Hb (72 h, time 3 day) of 13.6 g/dL. The Ht (72 h, time 3 day) was 41.3%, the Lym (72 h, time 3 day) was 74.8% and the MCH (72 h, time 3 day) was 20.9 pg. The MCHC (72 h, time 3 day) was 32.8%, the MCV (72 h, time 3 day) was 63.7 fL and the Mono (72 h, time 3 day) was 3%. The Neu (72 h, time 3 day) was 20.8%, the PT (72 h, time 3 day) was 13.2 s and the Plat (72 h, time 3 day) was 122 x10_4/uL. The RBC (72 h, time 3 day) was 649.2 x10_4/ul, the Ret (72 h, time 3 day) was 6.5% and the WBC (72 h, time 3 day) was 95.3 x10_2/uL. For the same compound, the KIDNEY_L [1] was 1 g, the KIDNEY_R [1] was 1 g and the KIDNEY_TOTAL [1] was 2 g. For the same compound, the LIVER (72 h, tissue Liver, time 3 day) was 10.7 g, the A/G [2] was 0.9 and the ALP [2] was 1543 IU/L. It also gave an ALT [2] of 42.4 IU/L, an AST [2] of 66.4 IU/L and a BUN [2] of 13.6 mg/dL. It also gave a CRE [2] of 0.2 mg/dL, a Ca [2] of 11 mg/dL and a Cl [2] of 105.2 meq/L. It also gave a DBIL [2] of 0.01 mg/dL, a GLC [2] of 186.8 mg/dL and an IP [2] of 7.4 mg/dL. The K [2] was 4.2 meq/L, the LDH [2] was 70.4 IU/L and the Na [2] was 141 meq/L. The PL [2] was 142.2 mg/dL, the RALB [2] was 2.6 g/dL and the TBIL [2] was 0.058 mg/dL. For the same compound, the TC [2] was 72 mg/dL, the TG [2] was 106.6 mg/dL and the TP [2] was 5.6 g/dL. The gamma-GTP [2] was 1 IU/L, the TERMINAL_BW ([…], time 7 day) was 265 g and the TERMINAL_BW ([…], time 14 day) was 328.7 g. The TERMINAL_BW ([…], time 28 day) was 377.8 g, the APTT ([…], time 7 day) was 19.5 s and the Bas ([…], time 7 day) was 0.6%. It also gave an Eos ([…], time 7 day) of 1.2%, a Fbg ([…], time 7 day) of 289.6 mg/dL and a Hb ([…], time 7 day) of 14 g/dL. For the same compound, the Ht ([…], time 7 day) was 42.1%, the Lym ([…], time 7 day) was 80% and the MCH ([…], time 7 day) was 20.5 pg. For the same compound, the MCHC ([…], time 7 day) was 33.2%, the MCV ([…], time 7 day) was 61.9 fL and the Mono ([…], time 7 day) was 2.8%. The Neu ([…], time 7 day) was 14.6%, the PT ([…], time 7 day) was 13.1 s and the Plat ([…], time 7 day) was 123.5 x10_4/uL. For the same compound, the RBC ([…], time 7 day) was 681.6 x10_4/ul, the Ret ([…], time 7 day) was 5.3% and the WBC ([…], time 7 day) was 106.6 x10_2/uL. The APTT ([…], time 14 day) was 20.6 s, the Bas ([…], time 14 day) was 0% and the Eos ([…], time 14 day) was 1%. For the same compound, the Fbg ([…], time 14 day) was 286 mg/dL, the Hb ([…], time 14 day) was 14.6 g/dL and the Ht ([…], time 14 day) was 44%. The Lym ([…], time 14 day) was 75.2%, the MCH ([…], time 14 day) was 20.6 pg and the MCHC ([…], time 14 day) was 33.2%. The MCV ([…], time 14 day) was 62.1 fL, the Mono ([…], time 14 day) was 3% and the Neu ([…], time 14 day) was 20%. It also gave a PT ([…], time 14 day) of 13.1 s, a Plat ([…], time 14 day) of 121.3 x10_4/uL and an RBC ([…], time 14 day) of 708 x10_4/ul. For the same compound, the Ret ([…], time 14 day) was 4.5%, the WBC ([…], time 14 day) was 97.2 x10_2/uL and the APTT ([…], time 28 day) was 19.8 s. It also gave a Bas ([…], time 28 day) of 0%, an Eos ([…], time 28 day) of 1.2% and a Fbg ([…], time 28 day) of 274.2 mg/dL. It also gave a Hb ([…], time 28 day) of 16 g/dL and a Ht ([…], time 28 day) of 46.9%.
